Measured values: ChEMBL document CHEMBL5380810, “Scaffold Hybrid of the Natural Product Tanshinone I with Piperidine for the Discovery of a Potent NLRP3 Inflammasome Inhibitor” (J Med Chem, 2023)
≈ marks a conversion by molar mass, not a printed value. Values belong to the compound of their own block, whether it stands above or below them. Calls of active or inactive are those of the source. The calls are words filed in the database; no cut-off is given here.

Columns and labels:
Peritoneal macrophage [1] = assay: Antiinflammatory activity against LPS-stimulated mouse peritoneal macrophage assessed as inhibition of IL-1beta secretion at 1 uM treated for 3 hrs followed by ATP addition measured after 30 mins by ELISA method; assay type: functional, cell-based; settings: time 3.5 hrs
[2] = biological target: NACHT, LRR and PYD domains-containing protein 3 (Mus musculus) (UniProt Q8R4B8); assay: Inhibition of NLRP3 inflammasome activation in LPS-stimulated mouse peritoneal macrophage assessed as inhibition of IL-1beta secretion at 2 uM treated for 3 hrs followed by ATP addition measured after 30 mins by Western blot analysis relative to control; assay type: cell-based; settings: time 3.5 hrs
Chain of NACHT, LRR and PYD domains-containing protein 3 (Mus musculus) (Q8R4B8 whole entry, the tested form may be a part): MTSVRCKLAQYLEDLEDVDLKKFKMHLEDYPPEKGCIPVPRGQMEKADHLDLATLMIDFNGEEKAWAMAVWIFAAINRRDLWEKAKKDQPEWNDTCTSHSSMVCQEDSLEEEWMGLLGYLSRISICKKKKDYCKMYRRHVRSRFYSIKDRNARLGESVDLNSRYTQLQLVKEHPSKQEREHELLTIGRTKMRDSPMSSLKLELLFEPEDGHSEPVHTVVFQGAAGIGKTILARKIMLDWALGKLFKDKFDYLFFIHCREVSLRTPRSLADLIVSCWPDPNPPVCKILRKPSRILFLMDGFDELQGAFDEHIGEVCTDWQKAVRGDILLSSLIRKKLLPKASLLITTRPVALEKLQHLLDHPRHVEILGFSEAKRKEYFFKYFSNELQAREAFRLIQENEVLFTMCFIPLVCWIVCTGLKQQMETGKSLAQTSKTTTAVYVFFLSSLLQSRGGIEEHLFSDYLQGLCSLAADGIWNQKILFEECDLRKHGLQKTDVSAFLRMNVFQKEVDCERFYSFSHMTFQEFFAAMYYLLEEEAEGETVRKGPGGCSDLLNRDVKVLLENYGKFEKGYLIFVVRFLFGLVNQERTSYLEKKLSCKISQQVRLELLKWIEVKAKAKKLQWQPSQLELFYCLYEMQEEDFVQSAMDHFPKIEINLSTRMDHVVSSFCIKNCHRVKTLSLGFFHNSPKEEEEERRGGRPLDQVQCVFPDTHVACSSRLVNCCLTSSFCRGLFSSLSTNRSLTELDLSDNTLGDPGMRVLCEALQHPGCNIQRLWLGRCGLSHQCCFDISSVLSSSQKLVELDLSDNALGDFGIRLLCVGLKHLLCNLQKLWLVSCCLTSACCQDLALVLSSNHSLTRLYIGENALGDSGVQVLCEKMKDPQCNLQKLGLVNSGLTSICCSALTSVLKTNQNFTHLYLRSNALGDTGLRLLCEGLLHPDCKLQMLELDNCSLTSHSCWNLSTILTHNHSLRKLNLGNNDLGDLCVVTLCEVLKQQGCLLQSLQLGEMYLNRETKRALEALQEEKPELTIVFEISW

[3] = biological target: NACHT, LRR and PYD domains-containing protein 3 (Mus musculus) (UniProt Q8R4B8); assay: Inhibition of NLRP3 inflammasome activation in LPS-stimulated mouse peritoneal macrophage assessed as inhibition of caspase-1 secretion at 2 uM treated for 3 hrs followed by ATP addition measured after 30 mins by Western blot analysis relative to control; assay type: cell-based; settings: time 3.5 hrs
Peritoneal macrophage [4] = assay: Effect on pro-IL-1beta expression in LPS-stimulated mouse peritoneal macrophage at 2 uM treated for 3 hrs followed by ATP addition measured after 30 mins by Western blot analysis; assay type: functional, cell-based; settings: time 3.5 hrs
Peritoneal macrophage [5] = assay: Effect on pro-caspase-1 expression in LPS-stimulated mouse peritoneal macrophage at 2 uM treated for 3 hrs followed by ATP addition measured after 30 mins by Western blot analysis; assay type: functional, cell-based; settings: time 3.5 hrs
[6] = biological target: NACHT, LRR and PYD domains-containing protein 3 (Mus musculus) (UniProt Q8R4B8); assay: Inhibition of NLRP3 inflammasome activation in ATP-induced LPS-primed mouse BMDM cells assessed as inhibition of IL-1beta secretion at 1 uM treated for 3 hrs followed by ATP addition measured after 30 mins by ELISA method; assay type: cell-based; settings: time 3.5 hrs
[7] = biological target: NACHT, LRR and PYD domains-containing protein 3 (Mus musculus) (UniProt Q8R4B8); assay: Inhibition of NLRP3 inflammasome activation in […] LPS-primed mouse peritoneal macrophage cells assessed as inhibition of IL-1beta secretion at 2 uM treated for 3 hrs followed by nigericin addition measured after 30 mins by ELISA method; assay type: cell-based; settings: time 3.5 hrs
[8] = biological target: NACHT, LRR and PYD domains-containing protein 3 (Mus musculus) (UniProt Q8R4B8); assay: Inhibition of NLRP3 inflammasome activation in […] LPS-primed mouse peritoneal macrophage cells assessed as inhibition of IL-1beta secretion at 2 uM treated for 3 hrs followed by MSU addition measured after 30 mins by ELISA method; assay type: cell-based; settings: time 3.5 hrs
Peritoneal macrophage [9] = assay: Effect on ASC expression in ATP-induced LPS-primed mouse peritoneal macrophage cells at 2 uM treated for 3 hrs followed by ATP addition measured after 30 mins by Western blot analysis; assay type: functional, cell-based; settings: time 3.5 hrs
Peritoneal macrophage [10] = assay: Effect on NLRP3 expression in ATP-induced LPS-primed mouse peritoneal macrophage cells at 2 uM treated for 3 hrs followed by ATP addition measured after 30 mins by Western blot analysis; assay type: functional, cell-based; settings: time 3.5 hrs
Peritoneal macrophage [11] = assay: Effect on pro-caspase-1 expression in ATP-induced LPS-primed mouse peritoneal macrophage cells at 2 uM treated for 3 hrs followed by ATP addition measured after 30 mins by Western blot analysis; assay type: functional, cell-based; settings: time 3.5 hrs
Peritoneal macrophage [12] = assay: Effect on pro-IL-1beta expression in ATP-induced LPS-primed mouse peritoneal macrophage cells at 2 uM treated for 3 hrs followed by ATP addition measured after 30 mins by Western blot analysis; assay type: functional, cell-based; settings: time 3.5 hrs
[13] = biological target: NACHT, LRR and PYD domains-containing protein 3 (Homo sapiens) (UniProt Q96P20); assay: Inhibition of NLRP3 (unknown origin) degradation at 10 uM incubated for 5 hrs followed by heat treatment for 3 mins by CETSA assay; settings: time 5.03 hrs
Chain of NACHT, LRR and PYD domains-containing protein 3 (Homo sapiens) (Q96P20 whole entry, the tested form may be a part): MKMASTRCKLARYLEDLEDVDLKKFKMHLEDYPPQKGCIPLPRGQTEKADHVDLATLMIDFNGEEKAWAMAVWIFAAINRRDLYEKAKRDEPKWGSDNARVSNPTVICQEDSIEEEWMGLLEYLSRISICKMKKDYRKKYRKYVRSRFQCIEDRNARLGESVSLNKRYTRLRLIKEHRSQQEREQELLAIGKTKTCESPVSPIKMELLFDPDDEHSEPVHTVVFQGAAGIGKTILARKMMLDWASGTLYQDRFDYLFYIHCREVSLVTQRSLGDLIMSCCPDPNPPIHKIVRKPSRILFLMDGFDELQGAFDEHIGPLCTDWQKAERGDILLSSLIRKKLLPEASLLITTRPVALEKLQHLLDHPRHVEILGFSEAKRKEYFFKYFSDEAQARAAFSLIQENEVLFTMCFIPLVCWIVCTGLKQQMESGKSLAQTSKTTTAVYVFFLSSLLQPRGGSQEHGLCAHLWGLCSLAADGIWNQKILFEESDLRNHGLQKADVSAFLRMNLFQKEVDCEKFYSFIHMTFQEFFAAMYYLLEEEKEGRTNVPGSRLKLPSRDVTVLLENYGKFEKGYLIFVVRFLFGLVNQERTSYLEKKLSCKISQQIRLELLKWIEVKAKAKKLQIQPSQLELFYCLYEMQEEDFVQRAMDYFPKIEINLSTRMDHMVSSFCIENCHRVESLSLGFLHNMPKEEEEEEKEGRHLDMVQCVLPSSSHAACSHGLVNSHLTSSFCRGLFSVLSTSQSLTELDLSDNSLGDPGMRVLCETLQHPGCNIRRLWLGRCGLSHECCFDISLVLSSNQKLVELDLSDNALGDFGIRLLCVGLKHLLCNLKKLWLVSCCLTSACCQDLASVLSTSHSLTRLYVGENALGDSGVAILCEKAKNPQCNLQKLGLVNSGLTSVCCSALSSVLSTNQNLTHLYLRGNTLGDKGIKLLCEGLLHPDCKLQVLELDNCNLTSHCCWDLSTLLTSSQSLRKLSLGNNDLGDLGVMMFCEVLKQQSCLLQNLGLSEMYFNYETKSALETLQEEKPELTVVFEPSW

Mus musculus [14] = assay: Antiinflammatory activity in septic C57BL/6 mouse model assessed as decrease in LPS-induced IL-1beta release at 50 mg/kg, ip pretreated for 42 hrs followed by LPS injection measured after 6 hrs by ELISA method; assay type: functional, organism-based; settings: time 48.0 hrs
Mus musculus [15] = assay: Antiinflammatory activity in septic C57BL/6 mouse model assessed as decrease in LPS-induced IL-6 release at 50 mg/kg, ip pretreated for 42 hrs followed by LPS injection measured after 6 hrs by ELISA method; assay type: functional, organism-based; settings: time 48.0 hrs
Mus musculus [16] = assay: Antiinflammatory activity in septic C57BL/6 mouse model assessed as reduction in LPS-induced alveolar wall thickening at 50 mg/kg, ip pretreated for 42 hrs followed by LPS injection measured after 6 hrs by H and E staining based analysis; assay type: functional, organism-based; settings: time 48.0 hrs
Mus musculus [17] = assay: Antiinflammatory activity in septic C57BL/6 mouse model assessed as reduction in LPS-induced granulocyte count at 50 mg/kg, ip pretreated for 42 hrs followed by LPS injection measured after 6 hrs by H and E staining based analysis; assay type: functional, organism-based; settings: time 48.0 hrs
Mus musculus [18] = assay: Antiinflammatory activity in septic C57BL/6 mouse model assessed as reduction in LPS-induced inflammatory infiltration at 50 mg/kg, ip pretreated for 42 hrs followed by LPS injection measured after 6 hrs by H and E staining based analysis; assay type: functional, organism-based; settings: time 48.0 hrs
Peritoneal macrophage [19] = assay: Cytotoxicity against mouse peritoneal macrophages at 4 uM incubated for 3.5 hrs by MTT assay; assay type: toxicity, cell-based
Peritoneal macrophage [20] = assay: Antiinflammatory activity against LPS-stimulated mouse peritoneal macrophage assessed as TNF-alpha level at 2 uM treated for 3 hrs followed by ATP addition measured after 30 mins by ELISA method relative to control; assay type: functional; settings: time 3.5 hrs
Peritoneal macrophage [21] = assay: Antiinflammatory activity against LPS-stimulated mouse peritoneal macrophage assessed as IL-1beta level at 2 uM treated for 3 hrs followed by ATP addition measured after 30 mins by ELISA method relative to control; assay type: functional; settings: time 3.5 hrs
Peritoneal macrophage [22] = assay: Antiinflammatory activity against LPS-stimulated mouse peritoneal macrophage assessed as inhibition of IL-1beta secretion treated for 3 hrs followed by ATP addition measured after 30 mins by ELISA method; assay type: functional, cell-based
[23] = biological target: NACHT, LRR and PYD domains-containing protein 3 (Mus musculus, UniProt Q8R4B8); assay: Binding affinity to CMS sensor chip immobilized His-SUMO-tagged mouse NLRP3 expressed in Escherichia coli assessed as dissociation constant by SPR analysis
Chain of NACHT, LRR and PYD domains-containing protein 3 (Q8R4B8 whole entry, the tested form may be a part): as the sequence (Q8R4B8 whole entry, the tested form may be a part) above

[24] = Aqueous solubility of compound incubated for 24 hrs by HPLC analysis; assay type: physicochemical; settings: buffer
[25] = Metabolic stability in human liver microsomes assessed as half life at 20 uM measured upto 120 mins in presence of NADPH by LC-MS/MS analysis; assay type: ADME, Microsome
[26] = Metabolic stability in mouse liver microsomes assessed as half life at 20 uM measured upto 120 mins in presence of NADPH by LC-MS/MS analysis; assay type: ADME, Microsome
[27] = Metabolic stability in human liver microsomes assessed as intrinsic clearance at 20 uM measured upto 120 mins in presence of NADPH by LC-MS/MS analysis; assay type: ADME, Microsome; settings: read-out: CLH
[28] = Metabolic stability in mouse liver microsomes assessed as intrinsic clearance at 20 uM measured upto 120 mins in presence of NADPH by LC-MS/MS analysis; assay type: ADME, Microsome; settings: read-out: CLH

- inhibition [2]: 100%
- inhibition [3]: 100%
- inhibition [6]: Active
- inhibition [7]: Active
- inhibition [8]: Active
- inhibition [13]: Active
Structure (SMILES): Cc1cccc2c3c(ccc12)-c1oc2c(c1C(=O)C3=O)CCN(CCCN1CCOCC1)C2 [listing 1 of 2 here]
- inhibition (Peritoneal macrophage [1]): Active
- Activity (Peritoneal macrophage [4]): inactive
- Activity (Peritoneal macrophage [5]): inactive
- Activity (Peritoneal macrophage [9]): inactive
- Activity (Peritoneal macrophage [10]): inactive
- Activity (Peritoneal macrophage [11]): inactive
- Activity (Peritoneal macrophage [12]): inactive
- Activity (Mus musculus [14]): Active
- Activity (Mus musculus [15]): Active
- Activity (Mus musculus [16]): Active
- Activity (Mus musculus [17]): Active
- Activity (Mus musculus [18]): Active

- IC50 (Peritoneal macrophage [22]): 131 nM
- Kd [23]: 5.87 µM
- solubility [24]: 0.03 µg/mL (≈ 0.0675 µM)
- half-life at 20 µM [25]: 866 min
- half-life at 20 µM [26]: 182 min
- microsomal CLint at 20 µM [27]: 1.6 µL/min/mg
- microsomal CLint at 20 µM [28]: 7.6 µL/min/mg
Structure (SMILES): Cc1cccc2c3c(ccc12)-c1oc2c(c1C(=O)C3=O)CCN(CCCN1CCOCC1)C2 [listing 2 of 2 here]
- Activity (Peritoneal macrophage [19]): Non-Toxic
- Activity (Peritoneal macrophage [20]): 41%
- Activity (Peritoneal macrophage [21]): 97%
